# Like-named read-outs stand apart in the source and are kept apart here.
# Assays:
# C. xerosis DSM 20170 [1] = assay: Bacteriostatic activity (MIC), microtiter turbidity; format: cell-based; settings: Corynebacterium xerosis, read-out: MIC C. xerosis DSM 20170
# From the text: (§1) The different axilla bacteria are isolated from the human axilla according to techniques known in the art, in particular according to standard microbiological practice. They are taxonomically identified by cell morphology, gram-reaction and biochemical tests included in the Api coryne test kit (BioMerieux, France). Strain Staphylococcus epidermidis Ax25 is identified by fatty acid methyl ester analysis (FAME; German type strain collection DSMZ, Germany).
# (§2) The strains are maintained on Tryptic soy broth plates, this standard medium being supplemented with 5 g per litre of Polyoxyethylene Sorbitan Monooleate (Tween™ 80). Plates are incubated at 36° C. for a period 48 hours. The bacteria are then swabbed from the plates and suspended in 4 ml of Müller-Hinton broth supplemented with 100 mg of Tween™ 80 per litre (MH-Tween™) and incubated again at 36° C. for 16 hours. Following incubation, the bacterial suspensions are diluted in MH-Tween™ to obtain a final cell density of 10^7 colony forming units per ml. These diluted suspensions of the different test organisms are distributed to different columns of a microtiter plate, 100 μl per well. The test compounds are dissolved in dimethylsulfoxide (DMSO) at various test concentrations and 2.5 μl of these different DMSO solutions are added to the different wells of the test plates. The plates are covered with plastic films and incubated for 24 h at 36° C. with shaking at 250 rpm. The turbidity developing in the microtiter plates is then examined after 24 h to determine microbial growth.
# Escherichia coli DSM 682 [2] = assay: as above; format: cell-based; settings: read-out: MIC Escherichia coli DSM 682
# From the text: as §1, §2
# S. epidermidis Ax 25 [3] = assay: as above; format: cell-based; settings: Staphylococcus epidermidis, read-out: MIC S. epidermidis Ax 25
# From the text: as §1, §2
# [4] = test system: Staphylococcus aureus DSM 799; assay: as above; format: cell-based; settings: read-out: MIC Staphylococcus aureus DSM 799
# From the text: as §1, §2
# Corynebacterium Ax 7 [5] = assay: as above; format: cell-based, Corynebacterium group G; settings: read-out: MIC Corynebacterium Ax 7
# From the text: as §1, §2
# Corynebacterium Ax 15 [6] = assay: as above; format: cell-based, Corynebacterium jeikeium; settings: read-out: MIC Corynebacterium Ax 15
# From the text: as §1, §2
# S. epidermidis Ax 25 [7] = assay: Bactericidal activity (MBC), 60 min contact; format: cell-based, Staphylococcus epidermidis; settings: complete kill of inoculum after 60 min incubation; regrowth read after 24 h at 36° C.
# From the text: as §1, with “Germany). Escherichia coli DSM 682, Staphylococcus aureus DSM 799, and Corynebacterium xerosis DSM 20170 are obtained from the German-type strain collection.” for “Germany).”
# as §2, with “growth. The minimal concentration of test compounds inhibiting the growth of an organism by at least 80% is determined as the minimal inhibitory concentration (MIC).” for “growth.”
# (§3) The bactericidal effects of the compounds of the present invention are further tested. The bacteria are grown, harvested and diluted under the same conditions as described in example 10 above and added to microtiter plates (100 μl per well), each well containing 2.5 μl of the different DMSO solutions as described above. After 60 min incubation, 0.5 μl of the bacterial culture from each well (corresponding to 5×10^3 cfu in the control treatment) is transferred to a fresh microtiter plate which contained 100 μl per well of fresh medium. The plates are covered with plastic films and incubated for 24 h at 36° C. with shaking at 250 rpm. The turbidity developing in the microtiter plates is then examined after 24 h to determine microbial growth. The minimal concentration of test compounds which completely killed the bacterial inoculum is determined as the minimal bactericidal concentration (MBC).
# C. xerosis DSM 20170 [8] = assay: Bactericidal activity (MBC), 60 min contact; format: cell-based, Corynebacterium xerosis; settings: complete kill of inoculum after 60 min incubation; regrowth read after 24 h at 36° C.
# From the text: as §1, with “Germany). Escherichia coli DSM 682, Staphylococcus aureus DSM 799, and Corynebacterium xerosis DSM 20170 are obtained from the German-type strain collection.” for “Germany).”
# as §2, with “growth. The minimal concentration of test compounds inhibiting the growth of an organism by at least 80% is determined as the minimal inhibitory concentration (MIC).” for “growth.”
# as §3
# Corynebacterium Ax 7 [9] = assay: Bactericidal activity (MBC), 60 min contact; format: cell-based, Corynebacterium group G; settings: complete kill of inoculum after 60 min incubation; regrowth read after 24 h at 36° C.
# From the text: as §1, with “Germany). Escherichia coli DSM 682, Staphylococcus aureus DSM 799, and Corynebacterium xerosis DSM 20170 are obtained from the German-type strain collection.” for “Germany).”
# as §2, with “growth. The minimal concentration of test compounds inhibiting the growth of an organism by at least 80% is determined as the minimal inhibitory concentration (MIC).” for “growth.”
# as §3
# Corynebacterium Ax 15 [10] = assay: Bactericidal activity (MBC), 60 min contact; format: cell-based, Corynebacterium jeikeium; settings: complete kill of inoculum after 60 min incubation; regrowth read after 24 h at 36° C.
# From the text: as §1, with “Germany). Escherichia coli DSM 682, Staphylococcus aureus DSM 799, and Corynebacterium xerosis DSM 20170 are obtained from the German-type strain collection.” for “Germany).”
# as §2, with “growth. The minimal concentration of test compounds inhibiting the growth of an organism by at least 80% is determined as the minimal inhibitory concentration (MIC).” for “growth.”
# as §3
# Escherichia coli DSM 682 [11] = assay: Bactericidal activity (MBC), 60 min contact; format: cell-based; settings: complete kill of inoculum after 60 min incubation; regrowth read after 24 h at 36° C.
# From the text: as §1, with “Germany). Escherichia coli DSM 682, Staphylococcus aureus DSM 799, and Corynebacterium xerosis DSM 20170 are obtained from the German-type strain collection.” for “Germany).”
# as §2, with “growth. The minimal concentration of test compounds inhibiting the growth of an organism by at least 80% is determined as the minimal inhibitory concentration (MIC).” for “growth.”
# as §3
# [12] = test system: Staphylococcus aureus DSM 799; assay: Bactericidal activity (MBC), 60 min contact; format: cell-based; settings: complete kill of inoculum after 60 min incubation; regrowth read after 24 h at 36° C.
# From the text: as §1, with “Germany). Escherichia coli DSM 682, Staphylococcus aureus DSM 799, and Corynebacterium xerosis DSM 20170 are obtained from the German-type strain collection.” for “Germany).”
# as §2, with “growth. The minimal concentration of test compounds inhibiting the growth of an organism by at least 80% is determined as the minimal inhibitory concentration (MIC).” for “growth.”
# as §3
# Aspergillus niger = assay: Antifungal (fungistatic) activity, MIC; format: cell-based; settings: growth inhibition by at least 80%, 48 h, Saboureaud liquid medium, 10^5 cfu per ml
# Protocol: as §2, with “growth. The minimal concentration of test compounds inhibiting the growth of an organism by at least 80% is determined as the minimal inhibitory concentration (MIC).” for “growth.”
# (§4) The fungistatic effects of the compounds of the present invention are tested against the standard strains Candida albicans and Aspergillus niger. The strains are maintained on Potato dextrose agar plates. Plates are incubated at 30° C. for a period of 72 hours. The fungal inoculum is then swabbed from the plates and suspended in Saboureaud liquid medium and incubated again at 30° C. for 24 hours in the case of C. albicans. For A. niger the inoculum containing the fungal spores is directly harvested from the agar plates and suspended in distilled water. The inoculum is then diluted in Saboureaud liquid medium to obtain a final cell density of 10^5 colony forming units per ml. The test for fungistatic activity using differently concentrated DMSO stock solutions in microtiter plates is then conducted as described in example 10 for the bacteriostatic activity. The turbidity developing in the microtiter plates is then examined after 48 h to determine fungal growth. The minimal concentration of test compounds inhibiting the growth of an organism by at least 80% is determined as the minimal inhibitory concentration (MIC).
# Candida albicans = assay: Antifungal (fungistatic) activity, MIC; format: cell-based; settings: growth inhibition by at least 80%, 48 h, Saboureaud liquid medium, 10^5 cfu per ml
# Protocol: as §2, with “growth. The minimal concentration of test compounds inhibiting the growth of an organism by at least 80% is determined as the minimal inhibitory concentration (MIC).” for “growth.”
# as §4
# [13] = DSM20170, growth inhibition by at least 80%, 24 h at 36° C., MH-Tween, 10^7 cfu per ml
# [14] = DSM682, growth inhibition by at least 80%, 24 h at 36° C., MH-Tween, 10^7 cfu per ml
# [15] = AX25, growth inhibition by at least 80%, 24 h at 36° C., MH-Tween, 10^7 cfu per ml
# [16] = DSM799, growth inhibition by at least 80%, 24 h at 36° C., MH-Tween, 10^7 cfu per ml
# [17] = AX7, growth inhibition by at least 80%, 24 h at 36° C., MH-Tween, 10^7 cfu per ml
# [18] = AX15, growth inhibition by at least 80%, 24 h at 36° C., MH-Tween, 10^7 cfu per ml
MIC (C. xerosis DSM 20170 [1]; [13]),MIC (Escherichia coli DSM 682 [2]; [14]),MIC (S. epidermidis Ax 25 [3]; [15]),"MIC [4, 16]",MIC (Corynebacterium Ax 7 [5]; [17]),MIC (Corynebacterium Ax 15 [6]; [18]),SMILES,"MIC (C. xerosis DSM 20170 [1]; DSM20170, 24 h)","MIC (Escherichia coli DSM 682 [2]; DSM682, 24 h)","MIC (S. epidermidis Ax 25 [3]; AX25, 24 h)","MIC ([4]; DSM799, 24 h)","MIC (Corynebacterium Ax 7 [5]; AX7, 24 h)","MIC (Corynebacterium Ax 15 [6]; AX15, 24 h)",MBC S. epidermidis Ax 25 (S. epidermidis Ax 25 [7]),MBC C. xerosis DSM 20170 (C. xerosis DSM 20170 [8]),MBC Corynebacterium Ax 7 (Corynebacterium Ax 7 [9]),MBC Corynebacterium Ax 15 (Corynebacterium Ax 15 [10]),MBC Escherichia coli DSM 682 (Escherichia coli DSM 682 [11]),MBC Staphylococcus aureus DSM 799 [12],MIC A. niger (Aspergillus niger),MIC C. albicans (Candida albicans)
,,,,,,"CCCCCCC(CCCC)COC(=O)CN (centres unmarked) [Compound 5., 2-Butyl-octyloxycarbonylmethyl-ammonium chloride]",20 mg/L,20 mg/L,20 mg/L,80 mg/L,10 mg/L,10 mg/L,0.004 % (weight/volume),0.004 % (weight/volume),0.002 % (weight/volume),0.002 % (weight/volume),0.004 % (weight/volume),0.004 % (weight/volume),0.0039 % (weight/volume),0.0078 % (weight/volume)
80 mg/L,> 2500 mg/L,80 mg/L,310 mg/L,80 mg/L,40 mg/L,"CCCCCCC(CCCC)COC(=O)CO (centres unmarked) [Compound 2., Hydroxy-acetic acid 2-butyl-octyl ester]",,,,,,,>0.25 % (weight/volume),>0.25 % (weight/volume),>0.25 % (weight/volume),>0.25 % (weight/volume),,,,
1250 mg/L,1250 mg/L,1250 mg/L,2500 mg/L,1250 mg/L,1250 mg/L,"CCCCC(CC)COC(=O)CO (centres unmarked) [Compound 1., Hydroxy-acetic acid 2-ethyl-hexyl ester]",,,,,,,0.25 % (weight/volume),0.125 % (weight/volume),0.125 % (weight/volume),0.125 % (weight/volume),,,0.125 % (weight/volume),0.0625 % (weight/volume)
> 2500 mg/L,> 2500 mg/L,≤ 19 mg/L,> 2500 mg/L,2500 mg/L,39 mg/L,"CCCCCCCCC(CCCCCC)COC(=O)CO (centres unmarked) [Compound 3., Hydroxy-acetic 2-hexyl-decyl ester]",,,,,,,>0.25 % (weight/volume),>0.25 % (weight/volume),>0.25 % (weight/volume),>0.25 % (weight/volume),>0.25 % (weight/volume),>0.25 % (weight/volume),,
,,,,,,"CCCCC(CC)COC(=O)CN (centres unmarked) [Compound 4., 2-Ethyl-hexyloxycarbonylmethyl-ammonium chloride]",310 mg/L,630 mg/L,630 mg/L,630 mg/L,310 mg/L,310 mg/L,0.25 % (weight/volume),>0.25 % (weight/volume),0.25 % (weight/volume),0.25 % (weight/volume),0.125 % (weight/volume),0.25 % (weight/volume),,
,,,,,,"Oc1cc(Cl)ccc1Oc1ccc(Cl)cc1Cl [Compound C4, Triclosan, reference compound]",15 mg/L,5 mg/L,0.15 mg/L,5 mg/L,30 mg/L,30 mg/L,,,,,,,,
,,,,,,"CCCCCCCCC(CCCCCC)COC(=O)CN (centres unmarked) [Compound 6., 2-Hexyl-decyloxycarbonylmethyl-ammonium chloride]",10 mg/L,20 mg/L,5 mg/L,20 mg/L,5 mg/L,5 mg/L,0.002 % (weight/volume),0.002 % (weight/volume),0.0005 % (weight/volume),0.0005 % (weight/volume),0.016 % (weight/volume),0.004 % (weight/volume),0.002 % (weight/volume),0.0156 % (weight/volume)
,,,,,,"CCCCCCCCCCCC(=O)OCC(O)CO (centres unmarked) [Compound C1, Dodecanoic acid 2,3-dihydroxy-propyl ester, reference compound]",320 mg/L,> 5000 mg/L,< 80 mg/L,80 mg/L,160 mg/L,1250 mg/L,,,,,,,,
